Measured values as given in ChEMBL document CHEMBL1139600, “Synthesis, in vivo and in vitro biological activity of novel azaline B analogs” (Bioorg Med Chem Lett, 2005).
pIC50: −log10 of the molar value. *1 amine or outer side, *2 acyl side, *3 side chain or, on linkers, in order; H or OH if unused. Where a SMILES comes first, the peptide text is derived from it. [ ]: non-standard residue; d: D form. Phe(4-NH(5-NH2triazol-3-yl)) = Nc1nc(Nc2ccc(C[C@H](N)C(=O)O)cc2)n[nH]1; X1 = Nc1nc(Nc2ccc(C[C@@H](N[*:1])C(=O)[*:2])cc2)n[nH]1; dPhe(4-Cl) = N[C@H](Cc1ccc(Cl)cc1)C(=O)O; d2Nal = N[C@H](Cc1ccc2ccccc2c1)C(=O)O; Lys(iPr) = CC(C)NCCCC[C@H](N)C(=O)O; d3Pal = N[C@H](Cc1cccnc1)C(=O)O

Key:
[1] = target: T1, Gonadotropin-releasing hormone receptor (Homo sapiens, UniProt P30968); assay: (§1) In vitro inhibition of human gonadotropin-releasing hormone expressed in HEK293 cells; type: cell-based
T1 sequence (P30968 whole entry): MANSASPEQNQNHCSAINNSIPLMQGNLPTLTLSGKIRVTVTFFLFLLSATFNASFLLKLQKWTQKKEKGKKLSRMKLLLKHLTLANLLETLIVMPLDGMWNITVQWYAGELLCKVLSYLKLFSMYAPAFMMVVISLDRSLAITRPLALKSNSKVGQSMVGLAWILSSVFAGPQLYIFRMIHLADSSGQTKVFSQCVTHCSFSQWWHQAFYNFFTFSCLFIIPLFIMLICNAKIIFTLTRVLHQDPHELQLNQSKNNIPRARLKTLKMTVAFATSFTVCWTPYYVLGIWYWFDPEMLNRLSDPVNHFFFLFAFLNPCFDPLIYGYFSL

[2] = target: T1, Gonadotropin-releasing hormone receptor; assay: as §1; type: cell-based; remark: listed apart in the source

| Structure (SMILES) | pIC50 [1] | pIC50 [2] |
| --- | --- | --- |
| CC(C)C[C@H](NC(=O)[C@@H](Cc1ccc(NC(N)=O)cc1)NC(=O)[C@H](Cc1ccc(NC(=O)C(N)CN)cc1)NC(=O)[C@H](CO)NC(=O)[C@@H](Cc1cccnc1)NC(=O)[C@@H](Cc1ccc(Cl)cc1)NC(=O)[C@H](N)Cc1ccc2ccccc2c1)C(=O)N[C@@H](CCCCNC(C)C)C(=O)N1CCC[C@H]1C(=O)N[C@H](C)C(=O)O (some centres undefined) | 8.55 | 8.50 |
| CC(=O)N[C@H](Cc1ccc2ccccc2c1)C(=O)N[C@H](Cc1ccc(Cl)cc1)C(=O)N[C@H](Cc1cccnc1)C(=O)N[C@@H](CO)C(=O)N[C@@H](Cc1ccc(NC(=O)C(N)CCN)cc1)C(=O)N[C@H](Cc1ccc(NC(N)=O)cc1)C(=O)N[C@@H](CC(C)C)C(=O)N[C@@H](CCCCNC(C)C)C(=O)N1CCC[C@H]1C(=O)N[C@H](C)C(=O)O (some centres undefined) | 8.45 | 8.50 |
| CC(=O)N[C@H](Cc1ccc2ccccc2c1)C(=O)N[C@H](Cc1ccc(Cl)cc1)C(=O)N[C@H](Cc1cccnc1)C(=O)N[C@@H](CO)C(=O)N[C@@H](Cc1ccc(NC(=O)NC(=O)[C@H](N)CCC(N)=O)cc1)C(=O)N[C@H](Cc1ccc(NC(N)=O)cc1)C(=O)N[C@@H](CC(C)C)C(=O)N[C@@H](CCCCNC(C)C)C(=O)N1CCC[C@H]1C(=O)N[C@H](C)C(=O)O | 8.16 | 8.20 |
| CC(=O)N[C@H](Cc1ccc2ccccc2c1)C(=O)N[C@H](Cc1ccc(Cl)cc1)C(=O)N[C@H](Cc1cccnc1)C(=O)N[C@@H](CO)C(=O)N[C@@H](Cc1ccc(NC(=O)C(N)CN)cc1)C(=O)N[C@H](Cc1ccc(NC(N)=O)cc1)C(=O)N[C@@H](CC(C)C)C(=O)N[C@@H](CCCCNC(C)C)C(=O)N1CCC[C@H]1C(=O)N[C@H](C)C(=O)O (some centres undefined) | 8.20 | 8.20 |

The next compounds have a higher pIC50 [2] than those just listed; values first:

| pIC50 [1] | pIC50 [2] | Structure (SMILES) |
| --- | --- | --- |
| 8.73 | 8.70 | CC(=O)N[C@H](Cc1ccc2ccccc2c1)C(=O)N[C@H](Cc1ccc(Cl)cc1)C(=O)N[C@H](Cc1cccnc1)C(=O)N[C@@H](CO)C(=O)N[C@@H](Cc1ccc(NC(=O)[C@@H]2CCC(=O)N2)cc1)C(=O)N[C@H](Cc1ccc(NC(N)=O)cc1)C(=O)N[C@@H](CC(C)C)C(=O)N[C@@H](CCCCNC(C)C)C(=O)N1CCC[C@H]1C(=O)N[C@H](C)C(=O)O |
| 8.61 | 8.60 | CC(=O)N[C@H](Cc1ccc2ccccc2c1)C(=O)N[C@H](Cc1ccc(Cl)cc1)C(=O)N[C@H](Cc1cccnc1)C(=O)N[C@@H](CO)C(=O)N[C@@H](Cc1ccc(NCC(=O)n2cc(C)c(=O)[nH]c2=O)cc1)C(=O)N[C@H](Cc1ccc(NC(N)=O)cc1)C(=O)N[C@@H](CC(C)C)C(=O)N[C@@H](CCCCNC(C)C)C(=O)N1CCC[C@H]1C(=O)N[C@H](C)C(N)=O |
| 8.65 | 8.70 | CC(=O)N[C@H](Cc1ccc2ccccc2c1)C(=O)N[C@H](Cc1ccc(Cl)cc1)C(=O)N[C@H](Cc1cccnc1)C(=O)N[C@@H](CO)C(=O)N[C@@H](Cc1ccc(NC(=O)NC(=O)[C@H](N)CC(N)=O)cc1)C(=O)N[C@H](Cc1ccc(NC(N)=O)cc1)C(=O)N[C@@H](CC(C)C)C(=O)N[C@@H](CCCCNC(C)C)C(=O)N1CCC[C@H]1C(=O)N[C@H](C)C(=O)O |
| 8.75 | 8.70 | CC(=O)N[C@H](Cc1ccc2ccccc2c1)C(=O)N[C@H](Cc1ccc(Cl)cc1)C(=O)N[C@H](Cc1cccnc1)C(=O)N[C@@H](CO)C(=O)N[C@@H](Cc1ccc(NC(=O)C2CCNC(=O)N2)cc1)C(=O)N[C@H](Cc1ccc(NC(N)=O)cc1)C(=O)N[C@@H](CC(C)C)C(=O)N[C@@H](CCCCNC(C)C)C(=O)N1CCC[C@H]1C(=O)N[C@H](C)C(N)=O (some centres undefined) |
| 8.63 | 8.60 | CC(=O)N[C@H](Cc1ccc2ccccc2c1)C(=O)N[C@H](Cc1ccc(Cl)cc1)C(=O)N[C@H](Cc1cccnc1)C(=O)N[C@@H](CO)C(=O)N[C@@H](Cc1ccc(NC(=O)NC(=O)[C@@H](N)CC(N)=O)cc1)C(=O)N[C@H](Cc1ccc(NC(N)=O)cc1)C(=O)N[C@@H](CC(C)C)C(=O)N[C@@H](CCCCNC(C)C)C(=O)N1CCC[C@H]1C(=O)N[C@H](C)C(=O)O |
| – | 8.90 | CC(=O)N[C@H](Cc1ccc2ccccc2c1)C(=O)N[C@H](Cc1ccc(Cl)cc1)C(=O)N[C@H](Cc1cccnc1)C(=O)N[C@@H](CO)C(=O)N[C@@H](Cc1ccc(Nc2n[nH]c(N)n2)cc1)C(=O)N[C@H](Cc1ccc(Nc2n[nH]c(N)n2)cc1)C(=O)N[C@@H](CC(C)C)C(=O)N[C@@H](CCCCNC(C)C)C(=O)N1CCC[C@H]1C(=O)N[C@H](C)C(N)=O (Ac-[d2Nal][dPhe(4-Cl)][d3Pal]S[Phe(4-NH(5-NH2triazol-3-yl))][X1]L[Lys(iPr)]P[dA]-NH2) |
